We go through eleven molecules from US20080200454A1, “CARBON-LINKED TETRAHYDRO-PYRAZOLO-PYRIDINE MODULATORS OF CATHEPSIN S” (priority 2007, published 2008).

For orientation: pIC50 means −log10 of the IC50, conventionally taken in molar units.

pIC50: −log10 of the molar value.

Sequence of Recombinant human cathepsin S (CatS) (P25774 115-331): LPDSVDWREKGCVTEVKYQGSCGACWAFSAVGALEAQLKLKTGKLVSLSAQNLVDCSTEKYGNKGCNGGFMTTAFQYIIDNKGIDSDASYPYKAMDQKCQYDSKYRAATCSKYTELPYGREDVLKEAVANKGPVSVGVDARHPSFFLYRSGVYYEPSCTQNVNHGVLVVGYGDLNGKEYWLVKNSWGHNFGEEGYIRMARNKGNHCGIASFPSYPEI

The first experiment concerns the target Recombinant human cathepsin S (CatS) (Homo sapiens, UniProt P25774). Kind of experiment: Recombinant human cathepsin S (CatS) inhibition assay, fluorogenic substrate Z-Valine-Valine-Arginine-AMC.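 Also: Baculovirus-expressed CatS in pH 5.0 sodium acetate buffer with DTT and NaCl, fluorescence read each minute over 20 min, inhibition derived from rate slope.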
Settings: not given
Consider `CC(C)(C)OC(=O)NCc1ccc(C#Cc2cc(-c3nn(CCCN4CCOCC4)c4c3CN(S(C)(=O)=O)CC4)ccc2Cl)cc1` [Example 40, (4-{2-Chloro-5-[5-methanesulfonyl-1-(3-morpholin-4-yl-propyl)-4,5,6,7-tetrahydro-1H-pyrazolo[4,3-c]pyridin-3-yl]-phenylethynyl}-benzyl)-carbamic acid tert-butyl ester], for which the pIC50 was 6.39.

Take `CS(=O)(=O)N1CCc2c(c(-c3ccc(Cl)c(C#CCc4ccccc4)c3)nn2CCCN2CCOCC2)C1` [Example 41, 3-[4-Chloro-3-(3-phenyl-prop-1-ynyl)-phenyl]-5-methanesulfonyl-1-(3-morpholin-4-yl-propyl)-4,5,6,7-tetrahydro-1H-pyrazolo[4,3-c]pyridine]: the negative-log IC50 (pIC50) is 5.40. As for `CS(=O)(=O)N1CCc2c(c(-c3ccc(Cl)c(C#CCCc4ccccc4)c3)nn2CCCN2CCOCC2)C1` [Example 42, 3-[4-Chloro-3-(4-phenyl-but-1-ynyl)-phenyl]-5-methanesulfonyl-1-(3-morpholin-4-yl-propyl)-4,5,6,7-tetrahydro-1H-pyrazolo[4,3-c]pyridine], the pIC50 is 5.01.

As to `CS(=O)(=O)N1CCc2c(c(-c3ccc(Cl)c(C#CCCCc4ccccc4)c3)nn2CCCN2CCOCC2)C1` [Example 43, 3-[4-Chloro-3-(5-phenyl-pent-1-ynyl)-phenyl]-5-methanesulfonyl-1-(3-morpholin-4-yl-propyl)-4,5,6,7-tetrahydro-1H-pyrazolo[4,3-c]pyridine], the negative-log IC50 (pIC50) was 5.26.

`CS(=O)(=O)N1CCc2c(c(-c3ccc(Cl)c(C#CCCCO)c3)nn2CCCN2CCOCC2)C1` [Example 46, 5-{2-Chloro-5-[5-methanesulfonyl-1-(3-morpholin-4-yl-propyl)-4,5,6,7-tetrahydro-1H-pyrazolo[4,3-c]pyridin-3-yl]-phenyl}-pent-4-yn-1-ol]: the pIC50 was 5.10.

In the case of `CCN(CC)CC#Cc1cc(-c2nn(CCCN3CCOCC3)c3c2CN(S(C)(=O)=O)CC3)ccc1Cl` [Example 49, (3-{2-Chloro-5-[5-methanesulfonyl-1-(3-morpholin-4-yl-propyl)-4,5,6,7-tetrahydro-1H-pyrazolo[4,3-c]pyridin-3-yl]-phenyl}-prop-2-ynyl)-diethyl-amine], the negative logarithm of the IC50 (pIC50) is 4.71. For the molecule `CS(=O)(=O)N1CCc2c(c(-c3ccc(Cl)c(C#CCN4CCS(=O)(=O)CC4)c3)nn2CCCN2CCOCC2)C1` [Example 50, 3-{4-Chloro-3-[3-(1,1-dioxo-1 A^6-thiomorpholin-4-yl)-prop-1-ynyl]-phenyl}-5-methanesulfonyl-1-(3-morpholin-4-yl-propyl)-4,5,6,7-tetrahydro-1H-pyrazolo[4,3-c]pyridine], the pIC50 is 5.17.

Still in this experiment, the particulars now being: CatS IC50.
For the molecule `CS(=O)(=O)N1CCc2c(c(-c3ccc(Cl)c(C#CC4CCCCC4)c3)nn2CCCN2CCOCC2)C1` [Example 48, 3-(4-Chloro-3-cyclohexylethynyl-phenyl)-5-methanesulfonyl-1-(3-morpholin-4-yl-propyl)-4,5,6,7-tetrahydro-1H-pyrazolo[4,3-c]pyridine], the negative-log IC50 (pIC50) was 5.17.

Still in this experiment, the particulars now being: CatS IC50, Table 2; average of results obtained.
With `CS(=O)(=O)N1CCc2c(c(-c3ccc(Cl)c(C#Cc4ccccc4)c3)nn2CCCN2CCOCC2)C1` [Example 39, 3-(4-Chloro-3-phenylethynyl-phenyl)-5-methanesulfonyl-1-(3-morpholin-4-yl-propyl)-4,5,6,7-tetrahydro-1H-pyrazolo[4,3-c]pyridine], the pIC50 was 6.21. Still for that read-out and setting: under `CS(=O)(=O)N1CCc2c(c(-c3ccc(Cl)c(C#CCCO)c3)nn2CCCN2CCOCC2)C1` [Example 45, 4-{2-Chloro-5-[5-methanesulfonyl-1-(3-morpholin-4-yl-propyl)-4,5,6,7-tetrahydro-1H-pyrazolo[4,3-c]pyridin-3-yl]-phenyl}-but-3-yn-1-ol] stands 6.04; under `CCCCC#Cc1cc(-c2nn(CCCN3CCOCC3)c3c2CN(S(C)(=O)=O)CC3)ccc1Cl` [Example 47, 3-(4-Chloro-3-hex-1-ynyl-phenyl)-5-methanesulfonyl-1-(3-morpholin-4-yl-propyl)-4,5,6,7-tetrahydro-1H-pyrazolo[4,3-c]pyridine], 4.97.
